Measured values published in article PMC3754872 (The Journal of Experimental Medicine, 2013).

Tests used:
CXCR2 [1] = target: T1, CXCR2 (Mus musculus, UniProt P35343); assay: displacement of […]-IL-8 from CXCR2-expressing L1.[…] cells; assay type: binding
T1 sequence (P35343 1-359): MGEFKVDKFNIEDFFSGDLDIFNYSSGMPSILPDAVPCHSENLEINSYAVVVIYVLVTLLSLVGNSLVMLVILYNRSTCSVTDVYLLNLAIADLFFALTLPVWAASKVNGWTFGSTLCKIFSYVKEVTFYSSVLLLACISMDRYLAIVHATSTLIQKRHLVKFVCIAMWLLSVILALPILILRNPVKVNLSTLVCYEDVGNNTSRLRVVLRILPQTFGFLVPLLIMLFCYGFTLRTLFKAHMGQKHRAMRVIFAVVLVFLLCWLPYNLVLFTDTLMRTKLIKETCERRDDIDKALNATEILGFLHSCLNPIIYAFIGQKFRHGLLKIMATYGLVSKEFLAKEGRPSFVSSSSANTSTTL

CXCR2 [2] = target: T1, CXCR2; assay: inhibition of agonist-stimulated; assay type: biochemical

| IC50 (CXCR2 [2]) [nM] | Compound | EC50 (CXCR2 [1]) [nM] |
| --- | --- | --- |
| – | CC(C)CCC(O)[C@@H](C)[C@H]1CC[C@H]2[C@@H]3CC=C4C[C@@H](O)CC[C@]4(C)[C@H]3CC[C@]12C (stereo partly drawn) [22R-HC] | 1320 ± 250 |
| 16.6 ± 3.64 | O=C(Nc1ccc([N+](=O)[O-])cc1O)Nc1ccccc1Br [SB225002] | – |
